# Biological target: T1, human Nav1.8 (Homo sapiens, UniProt Q9Y5Y9)
# T1 construct: expressed in transfected cells; host or cells: HEK293 (HEK293-Nav1.8)
# Experiment: Nav1.8 sodium channels assay, QPatch 48 HTX electrophysiology in HEK293-Nav1.8 cells
# Type: cell-based
# Settings: at least one set of experimental runs; read-out: average pIC50 value against Nav1.8 (converted)
# How it was run: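 HEK293 cells co-expressing human Nav1.8, Navβ1 and TREK1 were voltage-clamped on QPatch 48 HTX. The V1/2 protocol ran at 0.07 Hz: hold −100 mV, 20 ms to 0 mV, 8 s at −46 mV, 20 ms at −100 mV, then 20 ms at 0 mV (P2). P2 current was fitted over 6-8 concentrations for IC50, with vehicle wells used to correct for run-down.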
# T1 sequence (Q9Y5Y9 whole entry): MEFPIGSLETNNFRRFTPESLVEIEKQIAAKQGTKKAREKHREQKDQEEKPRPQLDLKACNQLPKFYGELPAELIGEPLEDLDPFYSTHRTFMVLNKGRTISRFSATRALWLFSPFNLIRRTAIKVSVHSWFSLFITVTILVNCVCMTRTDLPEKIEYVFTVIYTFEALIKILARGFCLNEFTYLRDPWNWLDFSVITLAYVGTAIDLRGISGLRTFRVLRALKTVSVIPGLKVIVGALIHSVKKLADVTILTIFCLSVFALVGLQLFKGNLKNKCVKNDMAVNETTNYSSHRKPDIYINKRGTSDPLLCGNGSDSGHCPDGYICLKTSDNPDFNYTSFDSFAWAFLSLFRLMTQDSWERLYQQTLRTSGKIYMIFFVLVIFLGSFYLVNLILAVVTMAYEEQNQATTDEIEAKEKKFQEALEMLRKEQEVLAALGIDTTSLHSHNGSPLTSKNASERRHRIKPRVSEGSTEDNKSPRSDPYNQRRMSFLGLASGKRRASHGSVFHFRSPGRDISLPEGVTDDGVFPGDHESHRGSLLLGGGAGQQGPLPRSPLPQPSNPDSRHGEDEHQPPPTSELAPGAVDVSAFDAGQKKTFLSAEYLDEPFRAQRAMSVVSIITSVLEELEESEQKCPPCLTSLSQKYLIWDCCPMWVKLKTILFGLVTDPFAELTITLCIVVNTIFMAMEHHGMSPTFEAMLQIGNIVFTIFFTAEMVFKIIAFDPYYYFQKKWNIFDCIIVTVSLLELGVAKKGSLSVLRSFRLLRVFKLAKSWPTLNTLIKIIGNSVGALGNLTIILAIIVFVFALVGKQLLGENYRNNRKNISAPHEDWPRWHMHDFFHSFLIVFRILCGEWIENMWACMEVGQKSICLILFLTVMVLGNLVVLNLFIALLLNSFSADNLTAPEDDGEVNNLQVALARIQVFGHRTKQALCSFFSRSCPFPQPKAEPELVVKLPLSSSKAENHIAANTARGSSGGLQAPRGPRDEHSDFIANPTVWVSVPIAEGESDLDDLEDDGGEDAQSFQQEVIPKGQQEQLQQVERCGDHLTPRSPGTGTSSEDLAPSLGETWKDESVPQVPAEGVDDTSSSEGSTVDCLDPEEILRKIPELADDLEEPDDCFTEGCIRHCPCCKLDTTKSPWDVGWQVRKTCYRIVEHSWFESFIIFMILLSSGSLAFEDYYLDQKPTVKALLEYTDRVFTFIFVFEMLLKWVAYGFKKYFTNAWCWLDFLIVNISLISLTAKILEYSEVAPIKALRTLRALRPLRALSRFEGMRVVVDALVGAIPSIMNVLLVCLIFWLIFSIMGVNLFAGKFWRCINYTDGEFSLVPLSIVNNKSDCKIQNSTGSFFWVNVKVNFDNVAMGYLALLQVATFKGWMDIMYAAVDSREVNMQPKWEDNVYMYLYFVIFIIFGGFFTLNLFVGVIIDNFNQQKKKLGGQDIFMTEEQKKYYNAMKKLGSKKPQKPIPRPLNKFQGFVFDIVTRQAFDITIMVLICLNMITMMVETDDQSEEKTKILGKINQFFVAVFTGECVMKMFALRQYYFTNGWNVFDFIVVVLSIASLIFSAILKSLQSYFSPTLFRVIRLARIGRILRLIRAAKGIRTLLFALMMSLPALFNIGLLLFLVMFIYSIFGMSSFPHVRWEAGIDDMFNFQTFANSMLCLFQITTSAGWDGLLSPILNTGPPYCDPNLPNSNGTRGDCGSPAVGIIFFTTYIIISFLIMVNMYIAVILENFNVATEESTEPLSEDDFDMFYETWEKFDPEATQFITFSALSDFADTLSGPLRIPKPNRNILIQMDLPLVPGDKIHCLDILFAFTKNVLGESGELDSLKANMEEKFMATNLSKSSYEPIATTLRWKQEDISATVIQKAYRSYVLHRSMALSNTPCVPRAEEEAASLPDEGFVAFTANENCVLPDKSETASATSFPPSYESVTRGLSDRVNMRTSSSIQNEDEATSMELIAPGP
# T1 sequence (Q07699 19-218 partner): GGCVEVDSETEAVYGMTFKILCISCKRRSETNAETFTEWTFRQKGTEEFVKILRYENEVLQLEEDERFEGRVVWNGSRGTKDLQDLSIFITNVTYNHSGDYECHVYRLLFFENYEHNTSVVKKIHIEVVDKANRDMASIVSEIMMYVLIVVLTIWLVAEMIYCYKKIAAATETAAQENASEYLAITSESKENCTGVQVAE
row,Compound,IC50
1,"COc1cc(F)ccc1N1CN(c2ccc(=O)[nH]c2)C(=O)c2c1cccc2C(F)(F)F [Example 223, 1-(4-fluoro-2-methoxyphenyl)-3-(6-oxo-1,6-dihydropyridin-3-yl)-5-(trifluoromethyl)-2,3-dihydroquinazolin-4(1H)-one]",794 to 7940 nM
2,"Cc1ncsc1N1CN(c2ccc(=O)[nH]c2C)C(=O)c2cc(C(F)(F)F)ccc21 [Example 224, 3-(2-methyl-6-oxo-1,6-dihydropyridin-3-yl)-1-(4-methylthiazol-5-yl)-6-(trifluoromethyl)-2,3-dihydroquinazolin-4(1H)-one]",794 to 7940 nM
3,"COc1cc(F)ccc1N1CN(c2ccc(=O)[nH]c2)C(=O)c2ccc(C#N)cc21 [Example 229, 1-(4-fluoro-2-methoxyphenyl)-4-oxo-3-(6-oxo-1,6-dihydropyridin-3-yl)-1,2,3,4-tetra-hydroquinazoline-7-carbonitrile]",794 to 7940 nM
4,"Cc1cc(OC(F)(F)F)ccc1N1CN(c2ccc(=O)[nH]c2)C(=O)c2cc(C(F)(F)F)ccc21 [Example 231, 1-(2-methyl-4-(trifluoromethoxy)phenyl)-3-(6-oxo-1,6-dihydropyridin-3-yl)-6-(trifluoromethyl)-2,3-dihydroquinazolin-4(1H)-one]",≤ 100 nM
5,"Cc1cc(F)ccc1N1CN(c2ccc(=O)[nH]c2C)C(=O)c2cc(C#N)c(Cl)cc21 [Example 233, 7-chloro-1-(4-fluoro-2-methylphenyl)-3-(2-methyl-6-oxo-1,6-dihydropyridin-3-yl)-4-oxo-1,2,3,4-tetra-hydroquinazoline-6-carbonitrile]",≤ 100 nM
6,"Cc1[nH]c(=O)ccc1N1CN(C23CC(C2)C3)c2cc(C(F)(F)F)ccc2C1=O [Example 237, 1-(bicyclo[1.1.1]pentan-1-yl)-3-(2-methyl-6-oxo-1,6-dihydropyridin-3-yl)-7-(trifluoromethyl)-2,3-dihydroquinazolin-4(1H)-one]",794 to 7940 nM
7,"Cc1[nH]c(=O)ccc1N1CN(c2ccccc2CC(F)(F)F)c2ccc(C(F)(F)F)cc2C1=O [Example 240, 3-(2-Methyl-6-oxo-1,6-dihydropyridin-3-yl)-1-(2-(2,2,2-trifluoroethyl)phenyl)-6-(trifluoromethyl)-2,3-dihydroquinazolin-4(1H)-one]",≤ 100 nM
8,"CCc1cc(F)ccc1N1CN(c2ccncc2C)C(=O)c2cc(Cl)c(C#N)cc21 [Example 243, 6-chloro-1-(2-ethyl-4-fluorophenyl)-3-(3-methylpyridin-4-yl)-4-oxo-1,2,3,4-tetrahydroquin-azoline-7-carbonitrile]",126 to 631 nM
9,"Cc1c[n+]([O-])ccc1N1CN(c2ccc(F)cc2C)c2cc(C(F)F)c(Cl)cc2C1=O [Example 244, 4-(6-Chloro-7-(difluoromethyl)-1-(4-fluoro-2-methylphenyl)-4-oxo-1,4-dihydroquinazolin-3(2H)-yl)-3-methylpyridine 1-oxide]",≤ 100 nM
10,"CCc1cc(F)ccc1N1CN(c2cc[n+]([O-])cc2C)C(=O)c2cc(Cl)c(F)cc21 [Example 245, 4-(6-chloro-1-(2-ethyl-4-fluorophenyl)-7-fluoro-4-oxo-1,4-dihydroquinazolin-3(2H)-y1)-3-methylpyridine 1-oxide]",≤ 100 nM
11,"Cc1c[n+]([O-])ccc1N1CN(c2ccc(OC(F)(F)F)cc2C)c2cc(F)c(Cl)cc2C1=O [Example 246, 4-(6-chloro-7-fluoro-1-(2-methyl-4-(trifluoromethoxy)phenyl)-4-oxo-1,4-dihydroquinazolin-3(2H)-yl)-3-methylpyridine 1-oxide]",≤ 100 nM
12,"CCc1cc(F)ccc1N1CN(c2cc[n+]([O-])cc2C)C(=O)c2cc(Cl)c(C#N)cc21 [Example 247, 4-(6-chloro-7-cyano-1-(2-ethyl-4-fluorophenyl)-4-oxo-1,4-dihydroquinazolin-3(2H)-yl)-3-methylpyridine 1-oxide]",≤ 100 nM
13,"Cc1cc(F)ccc1N1CN(c2ccc[n+]([O-])c2)C(=O)c2cc(C(F)(F)F)ccc21 [Example 249, 3-(1-(4-fluoro-2-methylphenyl)-4-oxo-6-(trifluoromethyl)-1,4-dihydroquinazolin-3(2H)-yl)pyridine 1-oxide]",794 to 7940 nM
14,"Cc1c[n+]([O-])ccc1N1CN(c2ccc(F)cc2C)c2ccc(C(F)(F)F)cc2C1=O [Example 254, 4-(1-(4-fluoro-2-methylphenyl)-4-oxo-6-(trifluoromethyl)-1,4-dihydroquinazolin-3(2H)-yl)-3-methylpyridine 1-oxide]",126 to 631 nM
15,"Cc1cc(N2CN(c3ccc(F)cc3C)c3ccc(C(F)(F)F)cc3C2=O)c[n+]([O-])c1 [Example 255, 3-(1-(4-fluoro-2-methylphenyl)-4-oxo-6-(trifluoromethyl)-1,4-dihydroquinazolin-3(2H)-yl)-5-methylpyridine 1-oxide]",794 to 7940 nM
16,"Cc1c[n+]([O-])ccc1N1CN(c2ccc(OC(F)(F)F)cc2C)c2ccc(C(F)(F)F)cc2C1=O [Example 256, 3-methyl-4-(1-(2-methyl-4-(trifluoromethoxy)phenyl)-4-oxo-6-(trifluoromethyl)-1,4-dihydroquinazolin-3(2H)-yl)pyridine 1-oxide]",≤ 100 nM

# Now from value to compound:
row,IC50,Compound
1,≤ 100 nM,"COc1ccc(N2CN(c3ccc(=O)[nH]c3C)C(=O)c3cc(C(F)(F)F)ccc32)c(OC)c1 [Example 225, 1-(2,4-dimethoxyphenyl)-3-(2-methyl-6-oxo-1,6-dihydropyridin-3-yl)-6-(trifluoromethyl)-2,3-dihydroquinazolin-4(1H)-one]"
2,≤ 100 nM,"COc1cc(F)ccc1N1CN(c2ccc(=O)[nH]c2C)C(=O)c2cc(C(F)(F)F)ccc21 [Example 226, 1-(4-fluoro-2-methoxyphenyl)-3-(2-methyl-6-oxo-1,6-dihydropyridin-3-yl)-6-(trifluoromethyl)-2,3-dihydroquinazolin-4(1H)-one]"
3,≤ 100 nM,"Cc1cc(F)ccc1N1CN(c2ccc(=O)[nH]c2C)C(=O)c2cc(F)c(Cl)nc21 [Example 227, 7-chloro-6-fluoro-1-(4-fluoro-2-methylphenyl)-3-(2-methyl-6-oxo-1,6-dihydropyridin-3-yl)-2,3-dihydropyrido[2,3-d]pyrimidin-4(1H)-one]"
4,≤ 100 nM,"Cc1cc(F)ccc1N1CN(c2ccc(=O)[nH]c2C)C(=O)c2ccc(OCC(F)(F)F)cc21 [Example 230, 1-(4-fluoro-2-methylphenyl)-3-(2-methyl-6-oxo-1,6-dihydropyridin-3-yl)-7-(2,2,2-trifluoroethoxy)-2,3-dihydroquinazolin-4(1H)-one]"
5,794 to 7940 nM,"Cc1cc(F)ccc1N1CN(c2c(Cl)cc(=O)[nH]c2C)C(=O)c2cc(Cl)ccc21 [Example 232, 6-chloro-3-(4-chloro-2-methyl-6-oxo-1,6-dihydropyridin-3-yl)-1-(4-fluoro-2-methylphenyl)-2,3-dihydroquinazolin-4(1H)-one]"
6,≤ 100 nM,"Cc1cc(F)ccc1N1CN(c2ccc(=O)[nH]c2C)C(=O)c2c1ccc(Cl)c2C [Example 234, 6-chloro-1-(4-fluoro-2-methylphenyl)-5-methyl-3-(2-methyl-6-oxo-1,6-dihydropyridin-3-yl)-2,3-dihydroquinazolin-4(1H)-one]"
7,794 to 7940 nM,"Cc1[nH]c(=O)ccc1N1CN(c2cc(F)cc(F)c2C)c2ccc(C(F)(F)F)cc2C1=O [Example 235, 1-(3,5-difluoro-2-methylphenyl)-3-(2-methyl-6-oxo-1,6-dihydropyridin-3-yl)-6-(trifluoromethyl)-2,3-dihydroquinazolin-4(1H)-one]"
8,794 to 7940 nM,"COc1cccc2c1C(=O)N(c1ccc(=O)[nH]c1C)CN2c1ccc(F)cc1C(C)C [Example 236, 1-(4-fluoro-2-isopropylphenyl)-5-methoxy-3-(2-methyl-6-oxo-1,6-dihydropyridin-3-yl)-2,3-dihydroquinazolin-4(1H)-one]"
9,794 to 7940 nM,"Cc1cc(F)ccc1N1CN(c2cc[nH]c(=O)c2C)C(=O)c2cc(C(F)(F)F)ccc21 [Example 238, 1-(4-fluoro-2-methylphenyl)-3-(3-methyl-2-oxo-1,2-dihydropyridin-4-yl)-6-(trifluoromethyl)-2,3-dihydroquinazolin-4(1H)-one]"
10,126 to 631 nM,"Cc1cc(F)ccc1N1CN(c2ccc(=O)[nH]c2C)Cc2cc(C(F)(F)F)ccc21 [Example 239, 5-(1-(4-fluoro-2-methylphenyl)-6-(trifluoromethyl)-1,4-dihydroquinazolin-3(2H)-yl)-6-methylpyridin-2(1H)-one]"
11,126 to 631 nM,"Cc1cc(F)ccc1N1CN(c2ccc(=O)[nH]c2C)C(=O)c2ccc(OC(F)F)nc21 [Example 241, 7-(difluoromethoxy)-1-(4-fluoro-2-methylphenyl)-3-(2-methyl-6-oxo-1,6-dihydropyridin-3-yl)-2,3-dihydropyrido[2,3-d]pyrimidin-4(1H)-one]"
12,≤ 100 nM,"Cc1cc(F)ccc1N1CN(c2ccc(=O)[nH]c2C)C(=O)c2cc(F)c(C#N)cc21 [Example 242, 6-fluoro-1-(4-fluoro-2-methylphenyl)-3-(2-methyl-6-oxo-1,6-dihydropyridin-3-yl)-4-oxo-1,2,3,4-tetrahydroquin-azoline-7-carbonitrile]"
13,794 to 7940 nM,"Cc1cc(F)ccc1N1CN(c2ccc(C(N)=O)[n+]([O-])c2)C(=O)c2c1ccc(Cl)c2F [Example 248, 2-carbamoyl-5-(6-chloro-5-fluoro-1-(4-fluoro-2-methylphenyl)-4-oxo-1,4-dihydroquinazolin-3(2H)-yl)pyridine 1-oxide]"
14,≤ 100 nM,"Cc1cc(F)ccc1N1CN(c2ccc(=O)[nH]c2N)C(=O)c2cc(C(F)(F)F)ccc21 [Example 257, 3-(2-Amino-6-oxo-1,6-dihydropyridin-3-yl)-1-(4-fluoro-2-methylphenyl)-6-(trifluoromethyl)-2,3-dihydroquinazolin-4(1H)-one]"
15,126 to 631 nM,"Cc1cc(F)ccc1N1CN(c2ccc(=O)[nH]c2C)C(=O)c2ccc(C3COC3)cc21 [Example 265, 1-(4-Fluoro-2-methylphenyl)-3-(2-methyl-6-oxo-1,6-dihydropyridin-3-yl)-7-(oxetan-3-yl)-2,3-dihydroquinazolin-4(1H)-one]"

# Reference: patent publication US20230103791A1 (GLAXOSMITHKLINE INTELLECTUAL PROPERTY DEVELOPMENT LIMITED, priority 2019, published 2023)
